# Like-named read-outs stand apart in the source and are kept apart here.
# What was measured:
# [1] = system: human peripheral blood mononuclear cells (PBMC); assay: PBMC cytotoxicity assay (CellTiter-Glo); type: cell-based; conditions: 2 days, pCC50
# How it was run: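 % cytotoxicity was taken from CellTiter-Glo luminescence, using wells without cells and stimulated DMSO wells as references, and fitted by four-parameter curve to give XC50. Cells were human PBMC at 50,000 per well, activated with 100 ng/ml IFN-γ plus 50 ng/ml LPS. Incubation with 11-point, 3-fold dilution series ran for 2 days at 37 °C.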
# ePL tagged IDO1 = target: T1, ePL tagged IDO1 (Homo sapiens, UniProt P14902); assay: CETSA (Cellular Thermal Shifting assay) in Hela cells; type: binding; conditions: BacMam ePL tagged IDO1, 3 hours at 37° C., heated at 53° C. for 3 min
# T1 construct: expressed in transfected cells; host or cells: HeLa cells transduced with BacMam virus
# Procedure: Cellular Thermal Shifting assays were used to directly monitor the ligand binding to target proteins in cells. Hela cells were transduced with BacMam virus expressing ePL tagged IDO1 overnight. The cells were then plated over the compounds for 3 hours at 37° C. in cell culture medium containing 1% FBS. The plates were then sealed and heated at 53° C. for 3 min. InCell Hunter reagents were added and luminescence was read in 90 min.
# [2] = target: indoleamine 2, 3-dioxygenase (IDO1) (Homo sapiens, UniProt P14902); assay: IDO1 PBMC RapidFire MS assay (kynurenine detection by mass spectrometry); type: cell-based; parameters: to induce the expression of indoleamine 2, 3-dioxygenase (IDO1); host or cells: human PBMC stimulated with IFN-gamma and LPS; conditions: human PBMC stimulated with IFN-γ and LPS, 2 days, pIC50, read-out: PBMC PXC50 (converted)
# How it was run: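 Kynurenine output, read by RapidFire mass spectrometry as ratio to an internal standard, was measured after 2-day compound exposure (11-point, 3-fold dilutions) of human PBMCs induced with 100 ng/ml IFN-γ and 50 ng/ml LPS. Cell viability tracked alongside via ATP luminescence; XC50 from curve fitting.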
# T1 sequence (P14902 whole entry): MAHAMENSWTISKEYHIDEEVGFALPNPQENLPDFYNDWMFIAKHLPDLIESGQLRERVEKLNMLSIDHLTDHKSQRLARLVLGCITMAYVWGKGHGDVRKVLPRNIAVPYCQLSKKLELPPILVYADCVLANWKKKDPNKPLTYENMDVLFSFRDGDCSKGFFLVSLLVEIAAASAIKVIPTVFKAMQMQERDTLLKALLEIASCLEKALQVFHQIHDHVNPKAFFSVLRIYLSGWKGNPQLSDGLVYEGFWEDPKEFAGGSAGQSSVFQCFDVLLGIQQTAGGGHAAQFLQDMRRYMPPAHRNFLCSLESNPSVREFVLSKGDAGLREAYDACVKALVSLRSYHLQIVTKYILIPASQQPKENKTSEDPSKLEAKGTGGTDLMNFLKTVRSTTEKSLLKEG
# indoleamine 2, 3-dioxygenase (IDO1), sequence (P14902 whole entry): as above
SMILES,PBMC TOX PXC50 [1],EC50 (ePL tagged IDO1; read-out: pXC50_1 (converted)) [nM],IC50 [2] [nM],EC50 (ePL tagged IDO1; read-out: pXC50_2 (converted)) [nM]
"CC(C)CN(c1ccc([C@H](C)CC(=O)O)cc1Nc1nc(C(F)(F)F)ns1)C1CCOCC1 [Example 20, (R)-3-(4-(Isobutyl(tetrahydro-2H-pyran-4-yl)amino)-3-((3-(trifluoromethyl)-1,2,4-thiadiazol-5-yl)amino)phenyl)butanoic Acid]",<5,9.55,2.51,–
"CC(C)CN(c1ccc([C@H](C)CC(=O)O)cc1Nc1nnc(C2CC2)s1)C1CCOCC1 [Example 23, (R)-3-(3-((5-cyclopropyl-1,3,4-thiadiazol-2-yl)amino)-4-(isobutyl (tetrahydro-2H-pyran-4-yl)amino)phenyl)butanoic Acid]",<5,331,3.16,234
